Test results published in US9365556B2, “3,5-diaminopyrazole kinase inhibitors” (Axikin Pharmaceuticals, Inc., priority 2012, dated 2016).

Target: T1, kinase domain protein of RC kinase (Homo sapiens, UniProt Q56UN5)
T1 sequence (Q56UN5 1061-1324 limits assumed): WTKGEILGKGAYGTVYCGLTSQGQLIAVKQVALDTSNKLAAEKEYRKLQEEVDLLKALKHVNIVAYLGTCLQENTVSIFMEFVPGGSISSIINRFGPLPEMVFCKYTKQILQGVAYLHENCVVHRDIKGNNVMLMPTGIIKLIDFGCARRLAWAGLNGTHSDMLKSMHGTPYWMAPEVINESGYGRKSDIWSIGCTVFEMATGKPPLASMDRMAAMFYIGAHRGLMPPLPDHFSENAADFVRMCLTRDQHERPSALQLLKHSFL
Assay: Enzymatic assay for kinase inhibitory activity (Crebtide substrate, LANCE read-out)
Assay type: biochemical
Details: compound at 1 μM
Method: Solutions of a test compound, Crebtide (a substrate), a kinase, and ATP were prepared using 1×MAPK Buffer (50 mM HEPES, 1 mM EGTA, […], 10 mM MgCl2, 2 mM DTT, and 0.01% Tween 20).
To each well, the test compound (1 μL) was first added (in duplicate) to reach a final concentration of 1 μM or 1×IC50 of the compound. The kinase (5 μl) was then added to each well to reach a final concentration of […] for the kinase domain or […] for the full-length domain. Each plate included a positive and negative controls in duplicate wells. Crebtide (2.5 μL) was then added to each well in duplicate to reach a final concentration of 50 nM. If the full-length kinase was used, the plates were incubated for 45 min at room temperature before proceeding further. ATP (2.5 μL) was added to each well to reach a final concentration of 1 μM for the kinase domain and 3 μM for the full-length.
After the addition of ATP, the plates were incubated for 45 min at room temperature. During the incubation, an EDTA solution (40 mM) and anti-Crebtide ([…]) were prepared. Additionally, a detection buffer stock solution was diluted ten fold before use.
After the incubation, the anti-Crebtide (5 μL) and EDTA (5 μL) were added to each well to reach their final concentrations of […] and 10 mM, respectively. The plates were allowed to develop at room temperature for 45 min. The plates were then read at 665 nm and 615 nm using Perkin Elmer Lance machine.
The biological results of inhibition of the kinase domain protein of RC kinase are summarized in Tables 2 and 3, wherein A represents at least 50% inhibition of the RC kinase activity at 1 μM; B represents no greater than 50% but at least 20% inhibition of the RC kinase activity at 1 μM; C represents no greater than 20% but at least 5% inhibition of the RC kinase activity at 1 μM; and D represents no greater than 5% inhibition of the RC kinase activity at 1 μM.

Structure (SMILES)	Activity (inhibition of the RC kinase activity)	inhibition at 1 µM [%]
NC(=O)c1c(Nc2cccc(Cl)c2)n[nH]c1/N=C/c1ccc(-c2ccccn2)s1 [Compound B60]	D (no greater than 5% inhibition of the RC kinase activity at 1 μM)	
Cc1cc(/C=N/c2[nH]nc(Nc3cccc(Cl)c3)c2C(N)=O)cc(C)c1O [Compound B61, 3-((3-chlorophenyl)amino)-5-((4-hydroxy-3,5-dimethylbenzylidene)amino)-1H-pyrazole-4-carboxamide]		≥ 50
Cc1ncsc1/C=N/c1[nH]nc(Nc2cccc(Cl)c2)c1C(N)=O [Compound B62, 3-((3-chlorophenyl)amino)-5-(((4-methylthiazol-5-yl)methylene)amino)-1H-pyrazole-4-carboxamide]		≥ 50
NC(=O)c1c(Nc2cccc(Cl)c2)n[nH]c1/N=C/c1ccc(Oc2ccc(C(F)(F)F)cn2)cc1 [Compound B63]	B (no greater than 50% but at least 20% inhibition of the RC kinase activity at 1 μM)	
NC(=O)c1c(Nc2cccc(Cl)c2)n[nH]c1/N=C/c1ccc(Oc2ncccn2)cc1 [Compound B64, 3-((3-chlorophenyl)amino)-5-((4-(pyrimidin-2-yloxy)benzylidene)amino)-1H-pyrazole-4-carboxamide]		≥ 50
NC(=O)c1c(Nc2cccc(Cl)c2)n[nH]c1/N=C/c1ccccc1-c1cccs1 [Compound B65]		20 to 50
NC(=O)c1c(Nc2cccc(Cl)c2)n[nH]c1/N=C/c1ccc(N2CCCC2)nc1 [Compound B66]		20 to 50
Cn1nc(CSc2ccccc2)c(/C=N/c2[nH]nc(Nc3cccc(Cl)c3)c2C(N)=O)c1Cl [Compound B67]		20 to 50
NC(=O)c1c(Nc2cccc(Cl)c2)n[nH]c1/N=C/c1ccc(OC(F)F)c(O)c1 [Compound B68]		≥ 50
Cc1[nH]c2ccccc2c1/C=N/c1[nH]nc(Nc2cccc(Cl)c2)c1C(N)=O [Compound B69]	B (no greater than 50% but at least 20% inhibition of the RC kinase activity at 1 μM)	
CCc1nc(C)c(/C=N/c2[nH]nc(Nc3cccc(Cl)c3)c2C(N)=O)[nH]1 [Compound B70]	B (no greater than 50% but at least 20% inhibition of the RC kinase activity at 1 μM)	
NC(=O)c1c(Nc2cccc(Cl)c2)n[nH]c1/N=C/c1cccn1S(=O)(=O)c1ccccc1 [Compound B71, 3-((3-chlorophenyl)amino)-5-(((1-(phenylsulfonyl)-1H-pyrrol-2-yl)methylene)amino)-1H-pyrazole-4-carboxamide]		20 to 50
NC(=O)c1c(Nc2cccc(Cl)c2)n[nH]c1/N=C/c1nc(-c2ccccc2)[nH]c1Cl [Compound B72]	B (no greater than 50% but at least 20% inhibition of the RC kinase activity at 1 μM)	
NC(=O)c1c(Nc2cccc(Cl)c2)n[nH]c1/N=C/c1ccc(-c2ccc(Cl)cc2)o1 [Compound B73]	B (no greater than 50% but at least 20% inhibition of the RC kinase activity at 1 μM)	
COc1cc(/C=N/c2[nH]nc(Nc3cccc(Cl)c3)c2C(N)=O)cc(O)c1OC [Compound B74]		5 to 20
NC(=O)c1c(Nc2cccc(Cl)c2)n[nH]c1/N=C/c1ccc(Oc2nccc(C(F)(F)F)n2)cc1 [Compound B75]		5 to 20
NC(=O)c1c(Nc2cccc(Cl)c2)n[nH]c1/N=C/c1c[nH]c2c(F)c(F)c(F)c(F)c12 [Compound B76]	D (no greater than 5% inhibition of the RC kinase activity at 1 μM)	
NC(=O)c1c(Nc2cccc(Cl)c2)n[nH]c1/N=C/c1cccc(Oc2ncccn2)c1 [Compound B77]		5 to 20
NC(=O)c1c(Nc2cccc(Cl)c2)n[nH]c1/N=C/c1ncc(Cl)nc1Cl [Compound B78]		≤ 5
NC(=O)c1c(Nc2cccc(Cl)c2)n[nH]c1/N=C/c1cnccn1 [Compound B80]		≤ 5
Cn1nc(C(F)(F)F)c(/C=N/c2[nH]nc(Nc3cccc(Cl)c3)c2C(N)=O)c1Cl [Compound B81]		≤ 5
NC(=O)c1c(Nc2cccc(Cl)c2)n[nH]c1/N=C/c1c(F)cccc1Cl [Compound B82]	D (no greater than 5% inhibition of the RC kinase activity at 1 μM)	

Structure (SMILES)	Activity (inhibition of the RC kinase activity)	inhibition at 1 µM [%]
NC(=O)c1c(Nc2cccc(Cl)c2)n[nH]c1/N=C/c1ccc(F)cc1O [Compound B83]		5 to 20
NC(=O)c1c(Nc2cccc(Cl)c2)n[nH]c1/N=C/c1ccc(CO)o1 [Compound B84, 3-((3-chlorophenyl)amino)-5-(((5-(hydroxymethyl)furan-2-yl)methylene)amino)-1H-pyrazole-4-carboxamide]		≥ 50
NC(=O)c1c(Nc2cccc(Cl)c2)n[nH]c1/N=C/c1cc(F)c(O)c(F)c1 [Compound B86, 3-((3-chlorophenyl)amino)-5-((3,5-difluoro-4-hydroxybenzylidene)amino)-1H-pyrazole-4-carboxamide]		≥ 50
N#Cc1cc(/C=N/c2[nH]nc(Nc3cccc(Cl)c3)c2C(N)=O)ccc1F [Compound B87]		≤ 5
NC(=O)c1c(Nc2cccc(Cl)c2)n[nH]c1/N=C/c1ncccc1F [Compound B88]		≤ 5
NC(=O)c1c(Nc2cccc(Cl)c2)n[nH]c1/N=C/c1ccc(OC(F)(F)F)c(F)c1 [Compound B90]	D (no greater than 5% inhibition of the RC kinase activity at 1 μM)	
Cn1c(Cl)c(/C=N/c2[nH]nc(Nc3cccc(Cl)c3)c2C(N)=O)c2ccccc21 [Compound B91]	D (no greater than 5% inhibition of the RC kinase activity at 1 μM)	
CS(=O)(=O)c1ccc(/C=N/c2[nH]nc(Nc3cccc(Cl)c3)c2C(N)=O)cc1 [Compound B92, 3-((3-chlorophenyl)amino)-5-((4-(methylsulfonyl)benzylidene)amino)-1H-pyrazole-4-carboxamide]		≤ 5
NC(=O)c1c(Nc2cccc(Cl)c2)n[nH]c1/N=C/c1ccc(Cl)cc1Cl [Compound B93]	D (no greater than 5% inhibition of the RC kinase activity at 1 μM)	
NC(=O)c1c(Nc2cccc(Cl)c2)n[nH]c1/N=C/c1ccc(Cl)cc1O [Compound B94]		5 to 20
NC(=O)c1c(Nc2cccc(Cl)c2)n[nH]c1/N=C/C1CCNCC1 [Compound B96]	D (no greater than 5% inhibition of the RC kinase activity at 1 μM)	
NC(=O)c1c(Nc2cccc(Cl)c2)n[nH]c1/N=C/c1ccc(-n2cnc3ccccc32)cc1 [Compound B97]	D (no greater than 5% inhibition of the RC kinase activity at 1 μM)	
NC(=O)c1c(Nc2cccc(Cl)c2)n[nH]c1/N=C/c1c[nH]nc1-c1ccc(F)cc1 [Compound B98]	C (no greater than 20% but at least 5% inhibition of the RC kinase activity at 1 μM)	
Cc1cc(/C=N/c2[nH]nc(Nc3cccc(Cl)c3)c2C#N)no1 [Compound B100]	C (no greater than 20% but at least 5% inhibition of the RC kinase activity at 1 μM)	
NC(=O)c1c(Nc2cccc(Cl)c2)n[nH]c1/N=C/c1ccc(N2CCOCC2)nc1 [Compound B101]		5 to 20
NC(=O)c1c(Nc2cccc(Cl)c2)n[nH]c1/N=C/c1c(O)cccc1Cl [Compound B103]		5 to 20
NC(=O)c1c(Nc2cccc(Cl)c2)n[nH]c1/N=C/c1cccc(OCCO)c1 [Compound B104, 3-((3-chlorophenyl)amino)-5-((3-(2-hydroxyethoxy)benzylidene)amino)-1H-pyrazole-4-carboxamide]		20 to 50
NC(=O)c1c(Nc2cccc(Cl)c2)n[nH]c1/N=C/c1cccnc1Cl [Compound B105]	C (no greater than 20% but at least 5% inhibition of the RC kinase activity at 1 μM)	
Cc1ccc(/C=N/c2[nH]nc(Nc3cccc(Cl)c3)c2C(N)=O)c(O)c1 [Compound B106]		≤ 5
NC(=O)c1c(Nc2cccc(Cl)c2)n[nH]c1/N=C/c1ccc(OCc2ccc(F)cc2)cc1 [Compound B107]		≤ 5
COc1cc(O)cc(OC)c1/C=N/c1[nH]nc(Nc2cccc(Cl)c2)c1C(N)=O [Compound B108]	B (no greater than 50% but at least 20% inhibition of the RC kinase activity at 1 μM)	
NC(=O)c1c(Nc2cccc(Cl)c2)n[nH]c1/N=C/c1ccc(OCCO)cc1 [Compound B109]		5 to 20

Same assay, conditions: compound at 1 μM, 1 µM

Structure (SMILES)	Activity (inhibition of the RC kinase activity)
N#Cc1c(Nc2cccc(Cl)c2)n[nH]c1/N=C/c1cnc(N)s1 [Compound B99]	A (at least 50% inhibition of the RC kinase activity at 1 μM)
